The subject of the series is CCRIS mutagenicity, Ames/micronucleus/aberration tests. Nature of the series: CCRIS mutagenicity studies.
Where [1] appears, read: Test System: AMES SALMONELLA TYPHIMURIUM, Strain/Indicator: TA100, Metabolic Activation: NONE, Method: STANDARD PLATE.

Experimental findings from PubChem BioAssay AID1259407 (Chemical Carcinogenesis Research Information System (CCRIS), 2018) are described below.

Activity calls are given as the source filed them. How the calls were made is not given here.

On to `Cc1c(C(=O)O)c(O)cc2c1C(=O)c1c(O)c([C@@H]3O[C@H](CO)[C@@H](O)[C@H](O)[C@H]3O)c(O)c(O)c1C2=O`, for which the mutagenic call runs as follows: (Test System: AMES SALMONELLA TYPHIMURIUM, Strain/Indicator: TA98, Metabolic Activation: HAMSTER, LIVER, S-9, AROCLOR 1254, Method: STANDARD PLATE) “inactive; negative”; (Test System: AMES SALMONELLA TYPHIMURIUM, Strain/Indicator: TA98, Metabolic Activation: NONE) “inactive; negative”; (Test System: AMES SALMONELLA TYPHIMURIUM, Strain/Indicator: TA98, Metabolic Activation: NONE, Method: STANDARD PLATE) “inactive; negative”; (Test System: AMES SALMONELLA TYPHIMURIUM, Strain/Indicator: TA98, Metabolic Activation: RAT, LIVER, S-9, AROCLOR 1254 (10 OR 30%)) “inactive; negative”; (Test System: AMES SALMONELLA TYPHIMURIUM, Strain/Indicator: TA98, Metabolic Activation: RAT, LIVER, S-9, AROCLOR 1254, Method: STANDARD PLATE) “inactive; negative”; (Test System: AMES SALMONELLA TYPHIMURIUM, Strain/Indicator: TA100, Metabolic Activation: HAMSTER, LIVER, S-9, AROCLOR 1254, Method: STANDARD PLATE) “inactive; negative”. Besides, the mutagenic call (Test System: AMES SALMONELLA TYPHIMURIUM, Strain/Indicator: TA100, Metabolic Activation: NONE) is “inactive; negative”; the mutagenic call under setting [1] was “inactive; negative”; the mutagenic call (Test System: AMES SALMONELLA TYPHIMURIUM, Strain/Indicator: TA100, Metabolic Activation: RAT, LIVER, S-9, AROCLOR 1254 (10%)) was “inactive; negative”; the mutagenic call (Test System: AMES SALMONELLA TYPHIMURIUM, Strain/Indicator: TA100, Metabolic Activation: RAT, LIVER, S-9, AROCLOR 1254 (10 OR 30%)) was “inactive; negative”; the mutagenic call (Test System: AMES SALMONELLA TYPHIMURIUM, Strain/Indicator: TA100, Metabolic Activation: RAT, LIVER, S-9, AROCLOR 1254, Method: STANDARD PLATE) is “inactive; negative”; the mutagenic call (Test System: AMES SALMONELLA TYPHIMURIUM, Strain/Indicator: TA1535, Metabolic Activation: HAMSTER, LIVER, S-9, AROCLOR 1254, Method: STANDARD PLATE) was “inactive; negative”. The mutagenic call by setting is: (Test System: AMES SALMONELLA TYPHIMURIUM, Strain/Indicator: TA1535, Metabolic Activation: NONE) “inactive; negative”; (Test System: AMES SALMONELLA TYPHIMURIUM, Strain/Indicator: TA1535, Metabolic Activation: NONE, Method: STANDARD PLATE) “inactive; negative”; (Test System: AMES SALMONELLA TYPHIMURIUM, Strain/Indicator: TA1535, Metabolic Activation: RAT, LIVER, S-9, AROCLOR 1254 (10 OR 30%)) “inactive; negative”; (Test System: AMES SALMONELLA TYPHIMURIUM, Strain/Indicator: TA1535, Metabolic Activation: RAT, LIVER, S-9, AROCLOR 1254, Method: STANDARD PLATE) “inactive; negative”; (Test System: AMES SALMONELLA TYPHIMURIUM, Strain/Indicator: TA1537, Metabolic Activation: HAMSTER, LIVER, S-9, AROCLOR 1254, Method: STANDARD PLATE) “inactive; negative”; (Test System: AMES SALMONELLA TYPHIMURIUM, Strain/Indicator: TA1537, Metabolic Activation: NONE) “inactive; negative”. For the same compound, the mutagenic call reads like this: (Test System: AMES SALMONELLA TYPHIMURIUM, Strain/Indicator: TA1537, Metabolic Activation: NONE, Method: STANDARD PLATE) “inactive; negative”; (Test System: AMES SALMONELLA TYPHIMURIUM, Strain/Indicator: TA1537, Metabolic Activation: RAT, LIVER, S-9, AROCLOR 1254 (10 OR 30%)) “inactive; negative”; (Test System: AMES SALMONELLA TYPHIMURIUM, Strain/Indicator: TA1537, Metabolic Activation: RAT, LIVER, S-9, AROCLOR 1254, Method: STANDARD PLATE) “inactive; negative”; (Test System: AMES SALMONELLA TYPHIMURIUM, Strain/Indicator: TA1538, Metabolic Activation: HAMSTER, LIVER, S-9, AROCLOR 1254, Method: STANDARD PLATE) “inactive; negative”; (Test System: AMES SALMONELLA TYPHIMURIUM, Strain/Indicator: TA1538, Metabolic Activation: NONE, Method: STANDARD PLATE) “inactive; negative”; (Test System: AMES SALMONELLA TYPHIMURIUM, Strain/Indicator: TA1538, Metabolic Activation: RAT, LIVER, S-9, AROCLOR 1254, Method: STANDARD PLATE) “inactive; negative”. Further, the mutagenic call (Test System: MOUSE LYMPHOMA, Strain/Indicator: L5178Y (TK+/TK-), Metabolic Activation: NONE, Method: SUSPENSION/PLATE) is “active; positive. reevaluation of results: positive”; the mutagenic call (Test System: MOUSE LYMPHOMA, Strain/Indicator: L5178Y (TK+/TK-), Metabolic Activation: RAT, LIVER, S-9, AROCLOR 1254, Method: SUSPENSION/PLATE) is “active; positive. reevaluation of results: positive”; the mutagenic call (Test System: UDS RODENT HEPATOCYTES, Strain/Indicator: THY INCORP, Metabolic Activation: NONE, Method: AUTORADIOGRAPHY) is “inactive; negative”.

As for `CC(=O)Nc1ccc(Oc2ccc(Cl)cc2Cl)cc1`, the mutagenic call is “inactive; negative” under setting [1] and “active; positive” (Test System: AMES SALMONELLA TYPHIMURIUM, Strain/Indicator: TA100, Metabolic Activation: RAT, LIVER, S-9, KANECLOR 500, Method: STANDARD PLATE).

For `Oc1cc(Cl)c(Cl)c(Cl)c1Cl`, the mutagenic call (End Point: IN VITRO CHROMOSOMAL ABERRATIONS, Test System: CHINESE HAMSTER LUNG CELLS (CHL), Metabolic Activation: NONE) is “inactive; negative”; the mutagenic call (End Point: IN VITRO CHROMOSOMAL ABERRATIONS, Test System: CHINESE HAMSTER LUNG CELLS (CHL), Metabolic Activation: RAT, LIVER, S-9, KC-400) was “active; positive (structural changes)”; the mutagenic call (End Point: IN VITRO CHROMOSOMAL ABERRATIONS, Test System: CHINESE HAMSTER OVARY CELLS (CHO), Metabolic Activation: NONE) is “inactive; negative”; the mutagenic call (End Point: IN VITRO CHROMOSOMAL ABERRATIONS, Test System: CHINESE HAMSTER OVARY CELLS (CHO), Metabolic Activation: RAT, LIVER, S-9, AROCLOR 1254) was “active; positive (structural changes)”; the mutagenic call (Test System: AMES SALMONELLA TYPHIMURIUM, Strain/Indicator: TA97, Metabolic Activation: HAMSTER, LIVER, S-9, AROCLOR 1254 (10 OR 30%), Method: PREINCUBATION) was “inactive; negative”; the mutagenic call (Test System: AMES SALMONELLA TYPHIMURIUM, Strain/Indicator: TA97, Metabolic Activation: NONE, Method: PREINCUBATION) was “inactive; negative”. The mutagenic call (Test System: AMES SALMONELLA TYPHIMURIUM, Strain/Indicator: TA97, Metabolic Activation: RAT, LIVER, S-9, AROCLOR 1254 (10 OR 30%), Method: PREINCUBATION) is “inactive; negative”; the mutagenic call (Test System: AMES SALMONELLA TYPHIMURIUM, Strain/Indicator: TA98, Metabolic Activation: HAMSTER, LIVER, S-9, AROCLOR 1254 (10 OR 30%), Method: PREINCUBATION) was “inactive; negative”; the mutagenic call (Test System: AMES SALMONELLA TYPHIMURIUM, Strain/Indicator: TA98, Metabolic Activation: NONE, Method: PREINCUBATION) was “inactive; negative”; the mutagenic call (Test System: AMES SALMONELLA TYPHIMURIUM, Strain/Indicator: TA98, Metabolic Activation: RAT, LIVER, S-9, AROCLOR 1254 (10 OR 30%), Method: PREINCUBATION) was “inactive; negative”; the mutagenic call (Test System: AMES SALMONELLA TYPHIMURIUM, Strain/Indicator: TA100, Metabolic Activation: HAMSTER, LIVER, S-9, AROCLOR 1254 (10 OR 30%), Method: PREINCUBATION) was “inactive; negative”; the mutagenic call (Test System: AMES SALMONELLA TYPHIMURIUM, Strain/Indicator: TA100, Metabolic Activation: NONE, Method: PREINCUBATION) was “inactive; negative”. Besides, the mutagenic call is “inactive; negative” (Test System: AMES SALMONELLA TYPHIMURIUM, Strain/Indicator: TA100, Metabolic Activation: RAT, LIVER, S-9, AROCLOR 1254 (10 OR 30%), Method: PREINCUBATION); “inactive; negative” (Test System: AMES SALMONELLA TYPHIMURIUM, Strain/Indicator: TA1535, Metabolic Activation: HAMSTER, LIVER, S-9, AROCLOR 1254 (10 OR 30%), Method: PREINCUBATION); “inactive; negative” (Test System: AMES SALMONELLA TYPHIMURIUM, Strain/Indicator: TA1535, Metabolic Activation: NONE, Method: PREINCUBATION); “inactive; negative” (Test System: AMES SALMONELLA TYPHIMURIUM, Strain/Indicator: TA1535, Metabolic Activation: RAT, LIVER, S-9, AROCLOR 1254 (10 OR 30%), Method: PREINCUBATION).
